We go through seven compounds from ChEMBL document CHEMBL3414567, “Novel hybrid DHPM-fatty acids: synthesis and activity against glioma cell growth in vitro” (Eur J Med Chem, 2015).

The source made the active and inactive calls. The calls are words filed in the database; no cut-off is given here.

Data set [1] has as its system C6. Description: Cytotoxicity against rat C6 cells assessed as reduction of cell viability at 50 uM after 24 hrs by MTT assay. In kind it is functional, cell-based. Background: Tetrazolium dyes change colour on reduction, which living cells bring about.
The nature of data set [2]: Cytotoxicity against human U138MG cells assessed as reduction of cell viability at 50 uM after 24 hrs by MTT assay relative to control. The data set is classed as functional, U138-MG.
The nature of data set [3]: Cytotoxicity against Wistar rat organotypic hippocampal slice cultures assessed as neural cell death at 200 uM after 24 hrs by propidium iodide staining-based fluorescence image analysis. Also noted: species or system Hippocampus.
Data set [4] is described as follows: Cytotoxicity against human U138MG cells assessed as reduction of cell viability at 10 uM after 24 hrs by MTT assay relative to control. In kind it is functional, U138-MG.
Data set [5] concerns C6. Briefly: Cytotoxicity against rat C6 cells assessed as reduction of cell viability at 25 uM after 24 hrs by MTT assay. In kind it is functional, cell-based.
Data set [6] relates to C6. Description: Cytotoxicity against rat C6 cells assessed as reduction of cell viability after 24 hrs by MTT assay. In kind it is functional, cell-based.
For the next data set, the system named is U138-MG. Briefly: Cytotoxicity against human U138MG cells assessed as reduction of cell viability after 24 hrs by MTT assay. The data set is classed as functional, cell-based.
Data set [7] has as its system C6. Description: Cytotoxicity against rat C6 cells assessed as growth inhibition at 150 uM relative to control. The data set is classed as functional. The following applies: read-out: GI.
Data set [8] in a line: Cytotoxicity against human U138MG cells assessed as growth inhibition at 150 uM relative to control. The following applies: U138-MG, read-out: GI. The data set is classed as functional.

For the compound `CCCCCCCCCCCCCCCCCCOC(=O)C1=C(C)NC(=S)NC1c1cccc(O)c1` (stereo unspecified), the result in the data set with C6 [1] was inactive.

In the case of `CCCCCCCC/C=C\CCCCCCCCOC(=O)C1=C(C)NC(=S)NC1c1cccc(O)c1` (stereo unspecified), the outcome in the data set with C6 [1] was Active. For the same compound, the results for the Activity in [2] and in data set [3] were 70% and “Non-toxic”, respectively.

On to `CCCCCCCCCCCCCCCCOC(=O)C1=C(C)NC(=O)NC1c1cccc(O)c1` (stereo unspecified), for which the outcome in the data set on C6 [1] was Active. Also, the Activity is 70% in data set [2], “Non-toxic” in [3] and 50% in [4].

Consider `CCCCCCCCCCCCCCCCOC(=O)C1=C(C)NC(=S)NC1c1cccc(O)c1` (stereo unspecified), for which the result in the data set with C6 [1] and with C6 [5] was Active. For the same compound, the Activity in [2] is on record as 70%; in [3], “Non-toxic”.

As to `CCCCCCCC/C=C\CCCCCCCCOC(=O)C1=C(C)NC(=O)NC1c1ccccc1` (stereo unspecified), the Activity entry in data set [3] is “Non-toxic”; in the data set on C6 [6], “Dose-dependent effect”; in the data set with U138-MG, “Dose-dependent effect”.

As for `CCCCCCCC/C=C\CCCCCCCCOC(=O)C1=C(C)NC(=O)NC1c1cccc(O)c1` (stereo unspecified), the result in the data set on C6 [1] and in the data set with C6 [5] was Active. For the same compound, the Activity in [2] is given as 70%; in data set [3] it was “Non-toxic”.

As for `CCOC(=O)C1=C(C)NC(=S)NC1c1cccc(O)c1` (stereo unspecified) [MONASTROL], the inhibition of growth at 150 µM (in the data set with C6 [7]; in data set [8]) was 30% in each case.
